Test results taken from ChEMBL document CHEMBL1158741, “Majusculoic acid, a brominated cyclopropyl fatty acid from a marine cyanobacterial mat assemblage” (2005).
≈ marks a conversion by molar mass, not a printed value. Calls of active or inactive are those of the source. The rule behind the calls is not given here.

Assays:
Candida albicans [1] = experiment: Antifungal activity against Candida albicans ATCC 14503; assay type: functional
Candida albicans [2] = experiment: Antifungal activity against fluconazole-resistant Candida albicans UCD FR1; assay type: functional, organism-based
Nakaseomyces glabratus = experiment: Antifungal activity against Candida glabrata; assay type: functional

SMILES	MIC (Candida albicans [1])	Activity (Candida albicans [2])	MIC (Nakaseomyces glabratus)
OC(Cn1cncn1)(Cn1cncn1)c1ccc(F)cc1F [FLUCONAZOLE]	1 µM (≈ 0.306 µg/mL)		
CCC/C(Br)=C/C=C/CC[C@H]1C[C@@H]1CCC(=O)O [MAJUSCULOIC ACID]	8 µM (≈ 2.52 µg/mL)	inactive	19.3 µM (≈ 6.08 µg/mL)
